Assay results from patent publication US20260083728A1, “COMPOUNDS FOR TREATING INFECTIONS WITH PARASITIC PROTOZOA” (OHIO STATE INNOVATIION FOUNDATION, priority 2022, published 2026).
pEC50: −log10 of the molar value.

Key:
[1] = test system: L. donovani LV82 promastigotes; test: Promastigote assay (proliferation); assay type: cell-based; conditions: Leishmania donovani, n ≥ 3 independent experiments
Experimental: Promastigote assay. The effect of the compounds on the proliferation of Leishmania donovani LV82 strain parasites (MHOM/ET/67:LV82) was carried out as outlined by Feng et al.^26

J774 macrophages = test: J774 macrophage assay; assay type: cell-based; conditions: Mus musculus; J774 murine macrophages; n ≥ 3 independent experiments
Experimental: J774 macrophage assay. This assay was performed as reported by Zhu et al.^27

[2] = test system: intracellular L. donovani LV82 parasites; test: L. donovani-infected macrophage assay (high content imaging); assay type: cell-based, Leishmania donovani; conditions: for effect on intracellular parasites: at non-toxic concentrations
Source text: (§1) Evaluation in an infected macrophage model. Four of the compounds described above were selected for evaluation in an L. donovani infected macrophage model. […] An image-based assay employing murine peritoneal macrophages as host cells and DAPI as an indicator that was based on assays reported previously in the literature^23-24 was used to evaluate these compounds.
(§2) L. donovani-infected macrophage assay. The efficacy of selected target compounds against intracellular L. donovani LV82 parasites was conducted using murine peritoneal macrophages as the host cell in a high content imaging assay essentially as described by Joice et al.^24 and Abdelhameed et al.^28, with the following modifications. The density of peritoneal macrophages was 5×10^4 host cells/well, with the parasite/macrophage ratio remaining at 5:1. The concentration of 4,6-diamidino-2-phenylindole (DAPI) employed for nuclear staining was 4 μM. […] For the quantification of the infection, macrophage nuclei were selected first by DAPI staining with area larger than 30 μm^2. The cytoplasm was selected consequentially based on the nuclei with the digital phase contrast (DPC) channel. Parasites in the cytoplasm were selected based on relative intensity. Parasites per macrophage in each well were exported to a CSV file to generate dose responses, with data analysis performed as described by Joice et al.^24

[3] = test system: murine peritoneal macrophages; test: Host cell toxicity in the infected macrophage assay; assay type: cell-based; conditions: for host cell toxicity: 25 μM and below; for toxicity to host cells: 50 μM
Source text: as §1, §2

L. donovani CYP5122A1 = L. donovani CYP5122A1 (Leishmania donovani, UniProt Q2XQE3); test: Leishmania CYP5122A1 inhibition assay; assay type: biochemical; conditions: comparator 18a
L. donovani CYP5122A1, sequence (Q2XQE3 entry or part of it): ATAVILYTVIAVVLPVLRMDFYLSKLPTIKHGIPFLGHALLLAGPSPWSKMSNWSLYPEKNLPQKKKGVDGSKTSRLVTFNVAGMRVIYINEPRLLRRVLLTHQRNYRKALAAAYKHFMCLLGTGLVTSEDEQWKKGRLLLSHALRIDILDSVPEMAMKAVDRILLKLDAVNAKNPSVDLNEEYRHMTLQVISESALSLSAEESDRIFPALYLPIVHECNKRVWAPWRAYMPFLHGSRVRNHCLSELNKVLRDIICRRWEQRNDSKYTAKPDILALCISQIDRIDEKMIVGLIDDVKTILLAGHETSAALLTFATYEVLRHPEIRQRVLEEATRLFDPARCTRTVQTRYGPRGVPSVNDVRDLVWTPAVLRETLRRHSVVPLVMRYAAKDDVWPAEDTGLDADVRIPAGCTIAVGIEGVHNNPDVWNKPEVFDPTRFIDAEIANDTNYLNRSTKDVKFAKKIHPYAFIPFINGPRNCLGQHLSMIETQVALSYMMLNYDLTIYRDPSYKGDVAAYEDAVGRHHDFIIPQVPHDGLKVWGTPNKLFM
Experimental: (§3) Leishmania CYP51 and CYP5122A1 assays. The cloning, expression, purification, and inhibition assays performed with L. donovani CYP51 and CYP5122A1 were conducted as described in Wang et al.^19

L. donovani CYP51 = L. donovani CYP51 (Leishmania donovani, UniProt A0A3S7WRS7); test: Leishmania CYP51 inhibition assay; assay type: biochemical; conditions: comparator 18a
L. donovani CYP51, sequence (A0A3S7WRS7 entry or part of it): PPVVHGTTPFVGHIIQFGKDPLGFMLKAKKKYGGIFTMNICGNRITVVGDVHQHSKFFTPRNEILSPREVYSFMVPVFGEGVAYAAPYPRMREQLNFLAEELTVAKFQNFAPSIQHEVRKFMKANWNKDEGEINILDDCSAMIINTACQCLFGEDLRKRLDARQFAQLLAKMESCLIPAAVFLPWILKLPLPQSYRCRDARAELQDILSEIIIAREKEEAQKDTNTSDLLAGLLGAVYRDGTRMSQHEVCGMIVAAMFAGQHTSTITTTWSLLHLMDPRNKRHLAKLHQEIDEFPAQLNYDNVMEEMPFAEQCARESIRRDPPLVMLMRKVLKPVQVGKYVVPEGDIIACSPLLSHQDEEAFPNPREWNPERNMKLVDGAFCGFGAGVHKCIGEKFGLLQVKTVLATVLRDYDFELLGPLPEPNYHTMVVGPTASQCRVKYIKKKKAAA
Experimental: as §3

[4] = murine peritoneal macrophages as host cells, n=3 determinations

| Structure (SMILES) | pEC50 [1] | other results |
| --- | --- | --- |
| Cc1cc(C)cc(NC(=O)N2CCN(Cc3ccncc3)CC2)c1 [Compound 4a, N-(3,5-dimethylphenyl)-4-(pyridin-4-ylmethyl)piperazine-1-carboxamide] | < 4.30 |  |
| O=C(Nc1ccccc1)N1CCN(Cc2ccncc2)CC1 [Compound 4b, N-phenyl-4-(pyridin-4-ylmethyl)piperazine-1-carboxamide] | < 4.00 |  |
| Cc1ccccc1NC(=O)N1CCN(Cc2ccncc2)CC1 [Compound 4c, 4-(Pyridin-4-ylmethyl)-N-(o-tolyl)piperazine-1-carboxamide] | < 4.00 |  |
| Cc1cccc(NC(=O)N2CCN(Cc3ccncc3)CC2)c1 [Compound 4d, 4-(Pyridin-4-ylmethyl)-N-(m-tolyl)piperazine-1-carboxamide] | < 4.00 |  |
| Cc1ccc(NC(=O)N2CCN(Cc3ccncc3)CC2)cc1 [Compound 4e, 4-(Pyridin-4-ylmethyl)-N-(p-tolyl)piperazine-1-carboxamide] | < 4.00 |  |
| Cc1cc(NC(=O)N2CCN(Cc3ccncc3)CC2)cc(C)c1C [Compound 4f, 4-(pyridin-4-ylmethyl)-N-(3,4,5-trimethylphenyl)piperazine-1-carboxamide] | < 4.30 |  |
| CC(C)(C)c1cccc(NC(=O)N2CCN(Cc3ccncc3)CC2)c1 [Compound 4g, N-(3-(tert-butyl)phenyl)-4-(pyridin-4-ylmethyl)piperazine-1-carboxamide] |  | pEC50 (J774 macrophages): < 4.30; effect on intracellular parasites [2]: little effect |
| COc1cccc(NC(=O)N2CCN(Cc3ccncc3)CC2)c1 [Compound 4i, N-(3-methoxyphenyl)-4-(pyridin-4-ylmethyl)piperazine-1-carboxamide] | < 4.00 |  |
| COc1ccc(NC(=O)N2CCN(Cc3ccncc3)CC2)cc1 [Compound 4j, N-(4-methoxyphenyl)-4-(pyridin-4-ylmethyl)piperazine-1-carboxamide] | < 4.00 |  |
| COc1cc(NC(=O)N2CCN(Cc3ccncc3)CC2)cc(OC)c1 [Compound 4k, N-(3,5-dimethoxyphenyl)-4-(pyridin-4-ylmethyl)piperazine-1-carboxamide] | < 4.00 |  |
| CC(C)Oc1cccc(NC(=O)N2CCN(Cc3ccncc3)CC2)c1 [Compound 4l, N-(3-isopropoxyphenyl)-4-(pyridin-4-ylmethyl)piperazine-1-carboxamide] | < 4.30 |  |
| O=C(Nc1ccccc1Cl)N1CCN(Cc2ccncc2)CC1 [Compound 4m, N-(2-chlorophenyl)-4-(pyridin-4-ylmethyl)piperazine-1-carboxamide] | < 4.00 |  |
| O=C(Nc1cccc(Cl)c1)N1CCN(Cc2ccncc2)CC1 [Compound 4n, N-(3-chlorophenyl)-4-(pyridin-4-ylmethyl)piperazine-1-carboxamide] | < 4.00 |  |
| O=C(Nc1ccc(Cl)cc1)N1CCN(Cc2ccncc2)CC1 [Compound 4o, N-(4-chlorophenyl)-4-(pyridin-4-ylmethyl)piperazine-1-carboxamide] | < 4.00 |  |
| O=C(Nc1cccc(F)c1)N1CCN(Cc2ccncc2)CC1 [Compound 4q, N-(3-fluorophenyl)-4-(pyridin-4-ylmethyl)piperazine-1-carboxamide] | < 4.00 |  |
| O=C(Nc1ccc(F)cc1)N1CCN(Cc2ccncc2)CC1 [Compound 4r, N-(4-fluorophenyl)-4-(pyridin-4-ylmethyl)piperazine-1-carboxamide] | < 4.00 |  |
| O=C(Nc1cc(F)cc(F)c1)N1CCN(Cc2ccncc2)CC1 [Compound 4s, N-(3,5-difluorophenyl)-4-(pyridin-4-ylmethyl)piperazine-1-carboxamide] | < 4.00 |  |
| O=C(Nc1cccc(C(F)(F)F)c1)N1CCN(Cc2ccncc2)CC1 [Compound 4t, 4-(Pyridin-4-ylmethyl)-N-(3-(trifluoromethyl)phenyl)piperazine-1-carboxamide] | 4.32 |  |
| O=C(Nc1ccc(C(F)(F)F)cc1)N1CCN(Cc2ccncc2)CC1 [Compound 4u, 4-(Pyridin-4-ylmethyl)-N-(4-(trifluoromethyl)phenyl)piperazine-1-carboxamide] | < 4.30 |  |
| O=C(Nc1cc(C(F)(F)F)cc(C(F)(F)F)c1)N1CCN(Cc2ccncc2)CC1 [Compound 4v, N-(3,5-bis(trifluoromethyl)phenyl)-4-(pyridin-4-ylmethyl)piperazine-1-carboxamide] | ~5.00 | effect on intracellular parasites [2]: little effect |
| O=C(Nc1ccc(OCc2cc(C(F)(F)F)cc(C(F)(F)F)c2)cc1)N1CCN(CCCc2ccccc2)CC1 [Compound 18ab, N-(4-((3,5-bis(trifluoromethyl)benzyl)oxy)phenyl)-4-(3-phenylpropyl)piperazine-1-carboxamide] | < 4.30 |  |
| O=C(Nc1ccc(OCc2cc(C(F)(F)F)cc(C(F)(F)F)c2)cc1)N1CCN(CCc2ccncc2)CC1 [Compound 18e, N-(4-((3,5-bis(trifluoromethyl)benzyl)oxy)phenyl)-4-(2-(pyridin-4-yl)ethyl)piperazine-1-carboxamide] |  | host cell toxicity [3]: lower; toxicity to host cells [3]: exhibited toxicity to host cells; pEC50 ([2]; Leishmania donovani, Peritoneal macrophage, murine peritoneal macrophages as host cells, n=3 determinations, read-out: EC50 against intracellular L. donovani): 5.40; EC50 against intracellular L. donovani [2, 4]: low micromolar range; increase in inhibitory potency against CYP5122A1 compared to hit compound 18a (L. donovani CYP5122A1): 3.4 fold |
| COc1cc(COc2ccc(NC(=O)N3CCN(CCc4ccncc4)CC3)cc2)cc(OC)c1 [Compound 18g, N-(4-((3,5-dimethoxybenzyl)oxy)phenyl)-4-(2-(pyridin-4-yl)ethyl)piperazine-1-carboxamide] |  | decrease in activity against CYP51 compared to hit compound 18a (L. donovani CYP51): 1.8 fold; decrease in potency against CYP5122A1 compared to hit compound 18a (L. donovani CYP5122A1): 3.0 fold |
| CC(C)(C)c1cc(COc2ccc(NC(=O)N3CCN(CCc4ccncc4)CC3)cc2)cc(C(C)(C)C)c1 [Compound 18i, N-(4-((3,5-di-tert-butylbenzyl)oxy)phenyl)-4-(2-(pyridin-4-yl)ethyl)piperazine-1-carboxamide] |  | host cell toxicity [3]: lower; toxicity to host cells [3]: exhibited toxicity to host cells; EC50 against intracellular L. donovani [2, 4]: low micromolar range; increase in inhibitory potency against CYP5122A1 compared to hit compound 18a (L. donovani CYP5122A1): 2.2 fold |
| O=C(Nc1ccc(OCc2cc(C(F)(F)F)cc(C(F)(F)F)c2)cc1)N1CCN(CCn2cccn2)CC1 [Compound 18o, 4-(2-(1H-pyrazol-1-yl)ethyl)-N-(4-((3,5-bis(trifluoromethyl)benzyl)oxy)phenyl)piperazine-1-carboxamide] | 4.52 |  |
| O=C(Nc1ccc(OCc2cc(C(F)(F)F)cc(C(F)(F)F)c2)cc1)N1CCN(CCn2cncn2)CC1 [Compound 18q, 4-(2-(1H-1,2,4-triazol-1-yl)ethyl)-N-(4-((3,5-bis(trifluoromethyl)benzyl)oxy)phenyl)piperazine-1-carboxamide] | < 4.30 | pEC50 (J774 macrophages): < 4.30 |
| O=C(Nc1ccc(OCc2cc(C(F)(F)F)cc(C(F)(F)F)c2)cc1)N1CCN(CCc2ccccc2)CC1 [Compound 18r, N-(4-((3,5-bis(trifluoromethyl)benzyl)oxy)phenyl)-4-phenethylpiperazine-1-carboxamide] | < 4.90 |  |
| COc1ccc(CCN2CCN(C(=O)Nc3ccc(OCc4cc(C(F)(F)F)cc(C(F)(F)F)c4)cc3)CC2)cc1 [Compound 18x, N-(4-((3,5-bis(trifluoromethyl)benzyl)oxy)phenyl)-4-(4-methoxyphenethyl)piperazine-1-carboxamide] |  | pEC50 (J774 macrophages): 5.08 |
